Measured values reported in the supplement of paper PMC11451515.

Test system: NOMO1
Assay: cell viability relative to DMSO control; higher = less cytotoxic
Details: 48 h
How it was run: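 NOMO1 or SEM (500 cells/well) or P12-Ichikawa (1000 cells/well) leukemia cells were adapted for at least four passages in each medium. They were seeded in 1536-well plates (5 μl) and pin-dosed with library compounds in DMSO over an 11-point threefold series, 47 μM to 0.79 nM. CellTiter-Glo One luminescence was read after 48 h at 37°C. Viability is the per-plate percentage relative to DMSO wells, with cell-free wells as background.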

[1] = HPLM + 10% dialyzed FBS, 0.000781 µM
[2] = HPLM + 10% dialyzed FBS, 0.00234 µM
[3] = HPLM + 10% dialyzed FBS, 0.00702 µM
[4] = HPLM + 10% dialyzed FBS, 0.0211 µM
[5] = HPLM + 10% dialyzed FBS, 0.0632 µM
[6] = HPLM + 10% dialyzed FBS, 0.19 µM
[7] = HPLM + 10% dialyzed FBS, 0.569 µM
[8] = HPLM + 10% dialyzed FBS, 1.71 µM
[9] = HPLM + 10% dialyzed FBS, 5.12 µM
[10] = HPLM + 10% dialyzed FBS, 15.4 µM
[11] = HPLM + 10% dialyzed FBS, 46.1 µM
[12] = RPMI 5 mM glucose + 10% FBS, 0.000781 µM
[13] = RPMI 5 mM glucose + 10% FBS, 0.00234 µM
[14] = RPMI 5 mM glucose + 10% FBS, 0.00702 µM
[15] = RPMI 5 mM glucose + 10% FBS, 0.0211 µM
[16] = RPMI 5 mM glucose + 10% FBS, 0.0632 µM
[17] = RPMI 5 mM glucose + 10% FBS, 0.19 µM
[18] = RPMI 5 mM glucose + 10% FBS, 0.569 µM
[19] = RPMI 5 mM glucose + 10% FBS, 1.71 µM
[20] = RPMI 5 mM glucose + 10% FBS, 5.12 µM
[21] = RPMI 5 mM glucose + 10% FBS, 15.4 µM
[22] = RPMI 5 mM glucose + 10% FBS, 46.1 µM
[23] = RPMI 5 mM glucose + 10% dialyzed FBS, 0.000781 µM
[24] = RPMI 5 mM glucose + 10% dialyzed FBS, 0.00234 µM
[25] = RPMI 5 mM glucose + 10% dialyzed FBS, 0.00702 µM
[26] = RPMI 5 mM glucose + 10% dialyzed FBS, 0.0211 µM
[27] = RPMI 5 mM glucose + 10% dialyzed FBS, 0.0632 µM
[28] = RPMI 5 mM glucose + 10% dialyzed FBS, 0.19 µM
[29] = RPMI 5 mM glucose + 10% dialyzed FBS, 0.569 µM
[30] = RPMI 5 mM glucose + 10% dialyzed FBS, 1.71 µM
[31] = RPMI 5 mM glucose + 10% dialyzed FBS, 5.12 µM
[32] = RPMI 5 mM glucose + 10% dialyzed FBS, 15.4 µM
[33] = RPMI 5 mM glucose + 10% dialyzed FBS, 46.1 µM

| Structure (SMILES) | cell viability [1] | cell viability [2] | cell viability [3] | cell viability [4] | cell viability [5] | cell viability [6] | cell viability [7] | cell viability [8] | cell viability [9] | cell viability [10] | cell viability [11] | cell viability [12] | cell viability [13] | cell viability [14] | cell viability [15] | cell viability [16] | cell viability [17] | cell viability [18] | cell viability [19] | cell viability [20] | cell viability [21] | cell viability [22] | cell viability [23] | cell viability [24] | cell viability [25] | cell viability [26] | cell viability [27] | cell viability [28] | cell viability [29] | cell viability [30] | cell viability [31] | cell viability [32] | cell viability [33] |
| --- | --- | --- | --- | --- | --- | --- | --- | --- | --- | --- | --- | --- | --- | --- | --- | --- | --- | --- | --- | --- | --- | --- | --- | --- | --- | --- | --- | --- | --- | --- | --- | --- | --- |
| N#CCNC(=O)c1ccc(-c2ccnc(Nc3ccc(N4CCOCC4)cc3)n2)cc1 | 109% | 115% | 116% | 134% | 128% | 117% | 115% | 105% | 124% | 87.3% | 8.36% | 88.7% | 116% | 101% | 113% | 107% | 106% | 106% | 89.5% | 102% | 86% | 11.3% | 48.6% | 105% | 129% | 113% | 120% | 110% | 99.7% | 90.8% | 114% | 85.6% | 10.8% |
| CNc1nc(Nc2ccc(C(=O)N3CCOCC3)cc2OC)ncc1Cl |  |  |  |  |  |  |  |  |  |  |  | 103% | 121% | 119% | 109% | 106% | 114% | 111% | 112% | 99.8% | 106% | 90.9% |  |  |  |  |  |  |  |  |  |  |  |
| C[C@H]1C[C@@H]2[C@H](CC[C@@]3(C)[C@H]2CC[C@]3(OC(C)=O)C(C)=O)[C@@]\4(C)CCC(=O)\C=C14 | 95.2% | 112% | 116% | 112% | 119% | 110% | 125% | 123% | 120% | 81.3% | 118% | 103% | 103% | 103% | 101% | 99.5% | 107% | 128% | 117% | 101% | 95.9% | 103% | 86.7% | 98.7% | 109% | 88.5% | 101% | 98.8% | 104% | 98% | 103% | 88.7% | 112% |
| Cc1nc2cnc3ccc(C#Cc4cccnc4)cc3c2n1-c1ccc(C(C)(C)C#N)cc1 | 72.6% | 84.9% | 82.3% | 83.2% | 50.2% | 59.6% | 38.7% | 44.8% | 43.3% | 36.3% | 8.48% | 65% | 78.6% | 69.6% | 81.1% | 61.8% | 62.7% | 32% | 47.1% | 44.1% | 38.6% | 7.85% | 66.4% | 81.6% | 91.9% | 84.9% | 56.7% | 60.7% | 30.4% | 48.8% | 40.1% | 48.4% | 9.18% |
| Cc1cnn(C)c1C(=O)Nc1cc(Nc2ccc3c(/C=C/c4ccccn4)n[nH]c3c2)ccc1F | 119% | 125% | 124% | 141% | 129% | 113% | 143% | 120% | 102% | 70.4% | 12.9% |  |  |  |  |  |  |  |  |  |  |  |  |  |  |  |  |  |  |  |  |  |  |
| C[C@]12CC[C@H]3[C@@H](CC[C@H]4NC(=O)\C=C/[C@]34C)[C@@H]1CC[C@@H]2C(=O)NC5=CC(=CC=C5C(F)(F)F)C(F)(F)F | 123% | 123% | 122% | 118% | 123% | 114% | 101% | 118% | 107% | 96.1% | 94.7% | 117% | 125% | 114% | 100% | 111% | 109% | 112% | 112% | 107% | 96.3% | 98.8% | 105% | 120% | 105% | 118% | 104% | 111% | 111% | 103% | 94.9% | 103% | 96.9% |
| CC1CNc2c(cccc2[S+](=O)([O-])N[C@@H](CCCNC(=N)N)C(=O)N2CC[C@@H](C)C[C@@H]2C(=O)O)C1 (some centres undefined) | 117% | 101% | 106% | 106% | 104% | 94.9% | 106% | 114% | 101% | 112% | 123% | 98.3% | 87.9% | 99.4% | 96.9% | 103% | 98.2% | 100% | 93.3% | 96.6% | 100% | 95.1% | 86.3% | 87.7% | 101% | 107% | 97.6% | 94.3% | 101% | 110% | 99.6% | 111% | 102% |
| C[C@@H](Oc1cc(-c2cnn(C3CCNCC3)c2)cnc1N)c1c(Cl)ccc(F)c1Cl |  |  |  |  |  |  |  |  |  |  |  | 118% | 116% | 113% | 115% | 131% | 129% | 108% | 107% | 96.3% | 71.8% | 56.2% | 114% | 116% | 107% | 124% | 118% | 119% | 119% | 110% | 83% | 64.8% | 47.4% |
